From patent publication US20250366503A1, “NOVEL GLUCOPYRANOSIDE COMPOSITIONS FOR SWEETNESS ENHANCEMENT” (International Flavors & Fragrances Inc., priority 2022, published 2025) come the findings set out here.

A short description of this test: Sweetness enhancement of sucrose by isolated compounds (flavor profile). The following applies: for Flavor Profile: 6% sucrose in water; for Enhancement of the sweetness of sweetness modifiers: general statement; for Sweetness and sugary mouthfeel enhancement: summary statement. How it is done: A sucrose solution (6%) was prepared in water and used as the base solution. Sucrose solutions of lipedoside B-IIIb, ligurobustoside E, ligurobustoside C, CPD5, ligurobustoside K ligurobustoside I and CPD6 were each prepared at 0.1-2 ppm. Flavor profiles of the sucrose solutions with added lipedoside B-IIIb, ligurobustoside E, ligurobustoside C, CPD5, ligurobustoside K and CPD6 are reported in the following: […]

For the compound `C=CC(C)(CCC=C(C)C)O[C@@H]1O[C@H](CO)[C@@H](OC(=O)/C=C/c2ccc(O)c(O)c2)[C@H](O[C@@H]2O[C@@H](C)[C@H](O)[C@@H](O)[C@H]2O)[C@H]1O` (stereo partly drawn) [CPD5, (2R,3R,4R,5R,6S)-6-((3,7-dimethylocta-1,6-dien-3-yl)oxy)-5-hydroxy-2-(hydroxymethyl)-4-(((2S,3R,4R,5R,6S)-3,4,5-trihydroxy-6-methyltetrahydro-2H-pyran-2-yl)oxy)tetrahydro-2H-pyran-3-yl (E)-3-(3,4-dihydroxyphenyl)acrylate], the “Enhancement of the sweetness of sweetness modifiers” value is “enhance the sweetness of sweetness modifiers without undesirable off-notes”. Besides, under “compound 2 ppm”, the “Flavor Profile” value was “Moderate sweetness and mouthfeel enhancement”.
As to `CC(C)=CC(=O)/C=C(\C)CCO[C@@H]1O[C@H](CO)[C@@H](OC(=O)/C=C/c2ccc(O)cc2)[C@H](O[C@@H]2O[C@@H](C)[C@H](O)[C@@H](O)[C@H]2O)[C@H]1O` [CPD6, (2R,3R,4R,5R,6R)-6-(((E)-3,7-dimethyl-5-oxoocta-3,6-dien-1-yl)oxy)-5-hydroxy-2-(hydroxymethyl)-4-(((2S,3R,4R,5R,6S)-3,4,5-trihydroxy-6-methyltetrahydro-2H-pyran-2-yl)oxy)tetrahydro-2H-pyran-3-yl (E)-3-(4-hydroxyphenyl)acrylate], the “Sweetness and sugary mouthfeel enhancement” value was “mild sweetness and sugary mouthfeel enhancement”. For the same compound, the “Flavor Profile” value (compound 2 ppm) was “Weak lingering sweetness and mouthfeel enhancement”.
With `CC(C)=CCC/C(C)=C/CO[C@@H]1O[C@H](CO)[C@@H](OC(=O)/C=C/c2ccc(O)cc2)[C@H](O[C@@H]2O[C@@H](C)[C@H](O)[C@@H](O)[C@H]2O)[C@H]1O` [Ligurobustoside C, ligurobustoside C], the “Enhancement of the sweetness of sweetness modifiers” value is given as “enhance the sweetness of sweetness modifiers without undesirable off-notes”. Also, the “Flavor Profile” value (compound 2 ppm) is “Some upfront sweetness and mouthfeel enhancement”.
`CC(C)=CCC/C(C)=C/CO[C@@H]1O[C@H](COC(=O)/C=C/c2ccc(O)cc2)[C@@H](O)[C@H](O[C@@H]2O[C@@H](C)[C@H](O)[C@@H](O)[C@H]2O)[C@H]1O` [Ligurobustoside E, ligurobustoside E]: the “Enhancement of the sweetness of sweetness modifiers” value is recorded as “enhance the sweetness of sweetness modifiers without undesirable off-notes”; the “Sweetness and sugary mouthfeel enhancement” value is “particularly strong sweetness and sugary mouthfeel enhancement”. Where the note is “compound 0.1 ppm”, the “Flavor Profile” value is “Sweetness enhancement, lingering sweetness”. In addition, the “Flavor Profile” value (compound 1 ppm) was “Upfront sweetness, lingering sweetness”.
Regarding `C/C(=C\CO[C@@H]1O[C@H](CO)[C@@H](OC(=O)/C=C/c2ccc(O)cc2)[C@H](O[C@@H]2O[C@@H](C)[C@H](O)[C@@H](O)[C@H]2O)[C@H]1O)C/C=C\C(C)(C)O` [ligurobustoside I], the “Sweetness and sugary mouthfeel enhancement” value is “mild sweetness and sugary mouthfeel enhancement”. Moreover, under “compound 2 ppm”, the “Flavor Profile” value was “Weak sweetness and mouthfeel enhancement”.
Regarding ligurobustoside K, the “Sweetness and sugary mouthfeel enhancement” value was “mild sweetness and sugary mouthfeel enhancement”. Further, the “Flavor Profile” value (compound 2 ppm) is “Weak sweetness and mouthfeel enhancement”.
With lipedoside B-IIIb, the “Enhancement of the sweetness of sweetness modifiers” value is given as “enhance the sweetness of sweetness modifiers without undesirable off-notes”; the “Sweetness and sugary mouthfeel enhancement” value was “particularly strong sweetness and sugary mouthfeel enhancement”. Moreover, the “Flavor Profile” value (compound 0.1 ppm) is reported as “Slight sweetness enhancement, lingering sweetness”. Also, the “Flavor Profile” value (compound 1 ppm) is “Sweetness enhancement, lingering sweetness”. For the same compound, the “Flavor Profile” value (compound 2 ppm) was “Strong upfront sweetness and sugary mouthfeel”.
